In one experiment the target is T1, R8 (Azospirillum baldaniorum, UniProt A0A9P1JTZ6).
T1 sequence (A0A9P1JTZ6 19-310): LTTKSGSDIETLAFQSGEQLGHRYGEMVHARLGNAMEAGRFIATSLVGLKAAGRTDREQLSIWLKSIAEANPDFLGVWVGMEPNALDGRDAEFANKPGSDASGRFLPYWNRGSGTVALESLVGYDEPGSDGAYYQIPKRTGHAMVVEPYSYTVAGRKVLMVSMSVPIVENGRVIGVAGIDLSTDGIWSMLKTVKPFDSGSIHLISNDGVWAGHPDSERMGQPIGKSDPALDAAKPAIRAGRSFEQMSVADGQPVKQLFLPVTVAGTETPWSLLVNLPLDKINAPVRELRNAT
As to the kind of experiment: ITC. The note with it: one binding site model.

The target of another experiment is T2, R7 (Peptoclostridium litorale, UniProt A0A069RI07).
T2 sequence (A0A069RI07 38-318 limits assumed): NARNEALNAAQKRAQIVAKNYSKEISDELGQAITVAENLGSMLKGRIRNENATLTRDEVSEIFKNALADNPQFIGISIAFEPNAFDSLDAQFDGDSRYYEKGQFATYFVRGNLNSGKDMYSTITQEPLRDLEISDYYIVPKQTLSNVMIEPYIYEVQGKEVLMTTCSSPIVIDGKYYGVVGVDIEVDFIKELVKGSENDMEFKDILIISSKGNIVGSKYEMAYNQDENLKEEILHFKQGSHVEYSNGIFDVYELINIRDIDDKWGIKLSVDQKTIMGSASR
As to the kind of experiment: ITC. Format: binding.

The next experiment deals with T3, R1 (Methanosarcina mazei, UniProt Q8PSW1).
T3 sequence (Q8PSW1 32-312): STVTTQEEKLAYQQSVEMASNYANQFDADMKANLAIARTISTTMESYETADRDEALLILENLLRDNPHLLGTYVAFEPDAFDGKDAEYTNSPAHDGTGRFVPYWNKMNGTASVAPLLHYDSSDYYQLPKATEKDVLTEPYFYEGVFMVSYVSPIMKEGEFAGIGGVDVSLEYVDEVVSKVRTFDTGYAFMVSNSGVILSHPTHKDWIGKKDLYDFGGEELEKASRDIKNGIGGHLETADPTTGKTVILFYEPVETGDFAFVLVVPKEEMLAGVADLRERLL
The experiment can be described thus: ITC. The experiment is classed as binding.

A further experiment deals with R3. The experiment can be described thus: ITC. The arrangement: species or system Desulfovibrio inopinatus. The following applies: read-out: KD (uM) / Polyamine / Ethylenediamine; one binding site model.
Another experiment has as its target T4, R5 (Williamwhitmania taraxaci, UniProt A0A1G6J2J7).
T4 sequence (A0A1G6J2J7 34-316 limits assumed): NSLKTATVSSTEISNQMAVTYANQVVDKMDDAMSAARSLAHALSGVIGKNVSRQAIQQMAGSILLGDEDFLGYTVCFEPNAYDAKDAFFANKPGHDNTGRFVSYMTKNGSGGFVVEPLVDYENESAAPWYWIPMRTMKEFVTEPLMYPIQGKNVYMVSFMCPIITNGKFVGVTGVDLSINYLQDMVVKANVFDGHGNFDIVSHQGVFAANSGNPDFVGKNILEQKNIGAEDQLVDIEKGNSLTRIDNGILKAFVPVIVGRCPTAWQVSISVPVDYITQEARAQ
As to the kind of experiment: ITC. The experiment is classed as binding.

A further experiment deals with PacA-LBD (Pectobacterium atrosepticum, UniProt Q6D515). The experiment can be described thus: biochemical.
In a further experiment the target is R6 (Oleiharenicola lentus, UniProt A0A4Q1C8G9). The experiment can be described thus: biochemical.

Where two headings read alike, the source gives them in different places.

Sequence of R6 (A0A4Q1C8G9 35-324 limits assumed): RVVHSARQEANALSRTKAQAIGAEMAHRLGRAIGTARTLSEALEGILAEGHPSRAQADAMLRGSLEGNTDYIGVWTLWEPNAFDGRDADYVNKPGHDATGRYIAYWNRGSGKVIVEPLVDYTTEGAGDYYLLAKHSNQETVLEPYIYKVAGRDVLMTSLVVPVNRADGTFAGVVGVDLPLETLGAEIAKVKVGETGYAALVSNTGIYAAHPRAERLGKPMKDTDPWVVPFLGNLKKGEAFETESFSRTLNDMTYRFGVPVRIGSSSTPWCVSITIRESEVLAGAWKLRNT
Sequence of PacA-LBD (Q6D515 1-271): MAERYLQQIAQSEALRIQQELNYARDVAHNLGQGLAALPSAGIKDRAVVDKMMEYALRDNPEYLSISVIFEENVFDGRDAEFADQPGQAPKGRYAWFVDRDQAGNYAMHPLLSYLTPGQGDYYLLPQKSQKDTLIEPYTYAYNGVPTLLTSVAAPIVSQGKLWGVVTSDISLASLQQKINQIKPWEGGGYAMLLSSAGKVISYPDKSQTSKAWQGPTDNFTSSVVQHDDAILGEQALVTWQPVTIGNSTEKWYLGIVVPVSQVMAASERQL

On to `CNC` [Dimethylamine], for which the Kd at R8 (read-out: KD (uM) / Methyl-/ethyl-/ethanol amines^* / Dimethylamine) was found to be 5.8 ± 1 µM; on R7, 5.3 ± 0.4 µM; at R1, 0.53 ± 0.02 µM.
On to `CN` [Methylamine], for which the Kd at R8 (read-out: KD (uM) / Methyl-/ethyl-/ethanol amines^* / Methylamine) worked out at 25.1 ± 3 µM; on R7 it was 16.6 ± 2 µM; on R1, 35.1 ± 3 µM.
Take `NCCN` [Ethylenediamine]: the figures for the Kd at R7 and on R3 were 12.3 ± 1 µM and 29.6 ± 3 µM, respectively.
As for `C[N+](C)(C)CCO` [Choline], the Kd was determined as 183 ± 4 µM on R8 (read-out: KD (uM) / Quaternary amines / Choline) and 3.6 ± 0.1 µM on R5.
Consider `CN(C)C` [Trimethylamine], for which the Kd on PacA-LBD amounted to 113 ± 6 µM; at R8 (read-out: KD (uM) / Methyl-/ethyl-/ethanol amines^* / Trimethylamine), 24 ± 4 µM; on R6, 151 ± 4 µM; at R5, 1.2 ± 0.1 µM; on R1, 10 ± 0.4 µM.

Values taken from paper PMC10589655 (Proceedings of the National Academy of Sciences of the …, 2023).
